Converted amounts (≈) assume the structure as drawn.

For 1 molecule, MIC results are on record in ChEMBL document CHEMBL3882388, “Pharmaceutical Compositions Comprising Beta-Lactam Antibiotic, Sulbactam and Beta-Lactamase Inhibitor” (2014).

In test [1] the test system is Acinetobacter baumannii. As to the kind of experiment: Antibacterial activity against extended-spectrum b-lactamase producing Acinetobacter baumannii NCTC 13301 incubated for 16 to 20 hrs by CLSI method. The class given is functional.
In test [2] the test system is Acinetobacter baumannii. As to the kind of experiment: Antibacterial activity against extended-spectrum b-lactamase producing Acinetobacter baumannii S-3 incubated for 16 to 20 hrs by CLSI method. The class given is functional.
Test [3] relates to Acinetobacter baumannii. As to the kind of experiment: Antibacterial activity against extended-spectrum b-lactamase producing Acinetobacter baumannii S-4 incubated for 16 to 20 hrs by CLSI method. In kind it is functional.
Test [4] concerns the target Beta-lactamase (Acinetobacter baumannii) (UniProt Q8RLA6). Briefly: Inhibition of beta-lactamase in extended-spectrum b-lactamase producing Acinetobacter baumannii S-4 assessed as potentiation of cefepime-induced antibacterial activity by measuring cefepime MIC at 4 to 8 ug/ml incubated for 16 to 20 hrs by CLSI method.
Test [5] has as its system Acinetobacter baumannii. As to the kind of experiment: Antibacterial activity against extended-spectrum b-lactamase producing Acinetobacter baumannii S-8 incubated for 16 to 20 hrs by CLSI method. The class given is functional.
The target in test [6] is Beta-lactamase (Acinetobacter baumannii) (UniProt Q8RLA6). As to the kind of experiment: Inhibition of beta-lactamase in extended-spectrum b-lactamase producing Acinetobacter baumannii S-4 assessed as potentiation of cefpirome-induced antibacterial activity by measuring cefpirome MIC at 4 to 8 ug/ml incubated for 16 to 20 hrs by CLSI method.
Test [7] shares this target. The conditions noted are these: NCTC 13301.
Test [8] has the same target. The settings on record: NCTC 13301. The source holds these as a separate data set.
Test [9] shares this target. The conditions noted are these: NCTC 13304.
Test [10] shares this target. The conditions noted are these: S-4.
For test [11] the target is unchanged. The settings on record: S-8.
The target is the same in test [12]. The conditions noted are these: S-10.
Test [13] shares this target. The conditions noted are these: NCTC 13301. This is another data set of the same source.
The target is the same in test [14]. The settings on record: NCTC 13301. The source holds these as a separate data set.
Test [15] shares this target. The conditions noted are these: NCTC 13304. This is another data set of the same source.
Test [16] has the same target. The settings on record: NCTC 13305.
Test [17] has the same target. The settings on record: NCTC 13305. This is another data set of the same source.
The target is the same in test [18]. The settings on record: S-3.
Test [19] shares this target. The settings on record: S-4. This is another data set of the same source.
For test [20] the target is unchanged. The settings on record: S-8. The source holds these as a separate data set.
The target is the same in test [21]. The settings on record: S-8. The source holds these as a separate data set.
Test [22] has the same target. The conditions noted are these: S-15.
Test [23] shares this target. The conditions noted are these: S-15. The source holds these as a separate data set.

Beta-lactamase (Acinetobacter baumannii), sequence (Q8RLA6 as listed by the source): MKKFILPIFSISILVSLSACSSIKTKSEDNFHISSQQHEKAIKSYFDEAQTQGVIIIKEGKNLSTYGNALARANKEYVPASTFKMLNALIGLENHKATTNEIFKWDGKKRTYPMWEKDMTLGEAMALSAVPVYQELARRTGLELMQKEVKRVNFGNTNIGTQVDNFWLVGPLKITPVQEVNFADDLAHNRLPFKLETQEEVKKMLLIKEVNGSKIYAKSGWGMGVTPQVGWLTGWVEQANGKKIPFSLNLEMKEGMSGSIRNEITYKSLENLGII

For `NC(=O)[C@@H]1CC[C@@H]2CN1C(=O)N2OS(=O)(=O)O`, the MIC in [1] was over 64 µg/mL; in test [2] it was over 64 µg/mL; in test [3] it was over 64 µg/mL; in [4], 32 µg/mL; in [5] it was over 64 µg/mL; in [6], 32 µg/mL. The MIC in test [7] was under 0.06 µg/mL; in test [8] it was under 0.06 µg/mL; in test [9], under 0.06 µg/mL; in test [10] it was 1 µg/mL (≈ 3.77 µM); in test [11], 0.5 µg/mL (≈ 1.89 µM); in [12], 8 µg/mL (≈ 30.2 µM). The MIC was under 0.06 µg/mL in [13]; under 0.06 µg/mL in [14]; under 0.06 µg/mL in test [15]; under 0.06 µg/mL in test [16]; under 0.06 µg/mL in test [17]; 0.5 µg/mL (≈ 1.89 µM) in test [18]. The MIC in test [19] worked out at 0.5 µg/mL (≈ 1.89 µM); in test [20], 0.5 µg/mL (≈ 1.89 µM); in [21], 0.5 µg/mL (≈ 1.89 µM); in test [22], 0.12 µg/mL (≈ 0.452 µM); in test [23], 0.5 µg/mL (≈ 1.89 µM).
